Assays:
Test in all cases: KINOMEscan kinase binding assay
Settings in all cases: at 1 μM
RET(M918T) = test system: RET(M918T)
Summary of the method: (§1)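 We measured how much kinase stayed bound to an immobilized small-molecule ligand when test compound was present. Binding ran at room temperature for 1 h, and the kinase eluted from the beads was counted by qPCR. Lower % Ctrl indicated tighter compound binding.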

[1] = test system: ABL1(T315I)-phosphorylated
Summary of the method: as §1

EPHB6 = test system: EPHB6
Summary of the method: as §1

EPHA5 = test system: EPHA5
Summary of the method: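 qPCR read-out of kinase retained on ligand-coated streptavidin beads. Binding buffer: 20% SeaBlock, 0.17×PBS, 0.05% Tween 20, 6 mM DTT; 1 h RT with shaking. % Ctrl = (test − positive control)/(negative control − positive control)×100; lower values mean stronger binding.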

KIT(D816H) = test system: KIT(D816H)
Summary of the method: as §1

FES = test system: FES
Summary of the method: as §1

FGFR1 = test system: FGFR1
Summary of the method: as §1

PDGFRA = test system: PDGFRA
Summary of the method: as §1

DDR2 = test system: DDR2
Summary of the method: as §1

EPHB4 = test system: EPHB4
Summary of the method: as §1

SMILES	% Ctrl (RET(M918T)) [%]	% Ctrl [1] [%]	% Ctrl (EPHB6) [%]	% Ctrl (EPHA5) [%]	% Ctrl (KIT(D816H)) [%]	% Ctrl (FES) [%]	% Ctrl (FGFR1) [%]	% Ctrl (PDGFRA) [%]	% Ctrl (DDR2) [%]	% Ctrl (EPHB4) [%]
Cc1cc2c([nH]1)/C=C1\C(=O)Nc3ccc(cc31)-c1c(nn(C)c1C)OCCCN(C)C2=O [Cpd. 1, [3a(4)Z]-6,9,15,16-tetramethyl-9,10,11,12-tetrahydro-15H-1,17-(ethanediylidene)pyrazolo[4,3-n]dipyrrolo[3,2-g:3′,4′-j][1,5]oxazacyclopentadecine-3,8(2H,5H)-dione]	84	95	100	93	74	92	100	87	95	86
Cc1cc2c([nH]1)/C=C1\C(=O)Nc3ccc(cc31)-c1c(nn(C)c1C)COCCN(C)C2=O [Cpd. 2, [3a(4)Z]-6,9,15,16-tetramethyl-10,11,13,15-tetrahydro-2H-1,17-(ethanediylidene)pyrazolo[4,3-m]dipyrrolo[3,2-f:3′,4′-i][1,4]oxazacyclopentadecine-3,8(5H,9H)-dione]	92	5.3	93	99	98	100	100	73	100	100
Cc1cc2c([nH]1)/C=C1\C(=O)Nc3c(Cl)cc(cc31)-c1cn(C)nc1COC[C@@H](C)NC2=O [Cpd. 3, [3a(4)Z,10R]-20-chloro-6,10,15-trimethyl-10,11,13,15-tetrahydro-2H-1,17-(ethanediylidene)pyrazolo[4,3-m]dipyrrolo[3,2-f:3′,4′-i][1,4]oxazacyclopentadecine-3,8(5H,9H)-dione]	100	69	86	100	94	99	80	92	100	97
C[C@@H]1COCc2nn(C)cc2-c2cc(Cl)c3c(c2)/C(=C/c2[nH]ccc2C(=O)N1)C(=O)N3 [Cpd. 4, [3a(4)Z,10R]-20-chloro-10,15-dimethyl-10,11,13,15-tetrahydro-2H-1,17-(ethanediylidene)pyrazolo[4,3-m]dipyrrolo[3,2-f:3′,4′-i][1,4]oxazacyclopentadecine-3,8(5H,9H)-dione]	98	35	86	100	80	100	75	96	79	98
Cc1cc2c([nH]1)/C=C1\C(=O)Nc3c(Cl)cc(cc31)-c1cn(C)nc1COC[C@@H](C)N(C)C2=O [Cpd. 5, [3a(4)Z,10R]-20-chloro-6,9,10,15-tetramethyl-10,11,13,15-tetrahydro-2H-1,17-(ethanediylidene)pyrazolo[4,3-m]dipyrrolo[3,2-f:3′,4′-i][1,4]oxazacyclopentadecine-3,8(5H,9H)-dione]	87	70	92	97	77	89	84	95	76	91

— patent US20250074920A1, “MACROCYCLIC COMPOUNDS AND USE AS KINASE INHIBITORS” (BLOSSOMHILL THERAPEUTICS, INC., priority 2022, published 2025)
